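Cells were grown in 96-well plates and exposed to each compound for 48 hours at five concentrations; endpoints were interpolated linearly between bracketing concentrations, or set to the highest concentration if not reached. Abbreviation: GI50, concentration required for 50% inhibition of growth. The concentration for full growth arrest is given as TGI.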
What was measured:
Assay in all cases: NCI tumour cell line growth inhibition, 48 h
[1] = tested on: UACC-257 melanoma
[2] = tested on: HCT-15 colon
[3] = tested on: T-47D breast
[4] = tested on: OVCAR-4 ovarian
[5] = tested on: KM12 colon
[6] = tested on: ACHN renal
[7] = tested on: UO-31 renal
[8] = tested on: MOLT-4 leukemia
[9] = tested on: SW-620 colon
[10] = tested on: SNB-19 CNS
[11] = tested on: RPMI-8226 leukemia
[12] = tested on: TK-10 renal
[13] = tested on: OVCAR-3 ovarian
[14] = tested on: OVCAR-5 ovarian
[15] = tested on: M14 melanoma
[16] = tested on: HL-60(TB) leukemia
[17] = tested on: MDA-MB-435
[18] = tested on: DU-145 prostate
[19] = tested on: A498 renal
[20] = tested on: NCI/ADR-RES ovarian
[21] = tested on: NCI-H522 lung
[22] = tested on: CAKI-1 renal
[23] = tested on: SK-OV-3 ovarian
[24] = tested on: CCRF-CEM leukemia
[25] = tested on: MALME-3M melanoma
[26] = tested on: SN12C renal
[27] = tested on: A549 NSCLC
[28] = tested on: SF-539 CNS
[29] = tested on: OVCAR-8 ovarian
[30] = tested on: SK-MEL-2 melanoma
[31] = tested on: HOP-62 NSCLC
[32] = tested on: SK-MEL-28 melanoma
[33] = tested on: NCI-H23 lung
[34] = tested on: SK-MEL-5 melanoma
[35] = tested on: HS 578T breast
[36] = tested on: HCT-116 colon
[37] = tested on: SNB-75 CNS
[38] = tested on: K-562 leukemia
[39] = tested on: MCF7 breast
[40] = tested on: NCI-H226 lung
[41] = tested on: 786-0 renal
[42] = tested on: HT29 colon
[43] = tested on: SF-268 CNS
[44] = tested on: SR leukemia
[45] = tested on: EKVX NSCLC
[46] = tested on: PC-3 prostate
[47] = tested on: HCC-2998 colon
[48] = tested on: U251 CNS
[49] = tested on: SF-295 CNS
[50] = tested on: NCI-H460 lung
[51] = tested on: IGROV1 ovarian
[52] = tested on: HOP-92 NSCLC
[53] = tested on: LOX IMVI melanoma
[54] = tested on: COLO 205 colon
[55] = tested on: MDA-MB-231 breast
[56] = tested on: UACC-62 melanoma

## COc1cc(C(=O)/C=C/c2ccc(OCCCCCC[P+](c3ccccc3)(c3ccccc3)c3ccccc3)cc2)cc(OC)c1OC
[1]
  GI50: 0.298 µM
  TGI: 1.26 µM
[2]
  GI50: 1.6 µM
  TGI: 3.13 µM
[3]
  GI50: 0.261 µM
  TGI: 1.77 µM
[4]
  GI50: 0.374 µM
  TGI: 1.48 µM
[5]
  GI50: 0.355 µM
  TGI: 1.31 µM
[6]
  GI50: 1.5 µM
  TGI: 2.82 µM
[7]
  GI50: 1.46 µM
  TGI: 2.78 µM
[8]
  GI50: 0.559 µM
  TGI: 3 µM
[9]
  GI50: 0.358 µM
  TGI: 1.36 µM
[10]
  GI50: 0.341 µM
  TGI: 1.31 µM
[11]
  GI50: 0.214 µM
  TGI: 0.703 µM
[12]
  GI50: 1.34 µM
  TGI: 2.81 µM
[13]
  GI50: 0.347 µM
  TGI: 1.16 µM
[14]
  GI50: 0.754 µM
  TGI: 2.1 µM
[15]
  GI50: 0.971 µM
  TGI: 3.18 µM
[16]
  GI50: 0.227 µM
  TGI: 0.643 µM
[17]
  GI50: 0.337 µM
  TGI: 1.14 µM
[18]
  GI50: 0.698 µM
  TGI: 1.96 µM
[19]
  GI50: 0.71 µM
  TGI: 1.97 µM
[20]
  GI50: 3.58 µM
  TGI: > 100 µM
[21]
  GI50: 0.342 µM
  TGI: 2.09 µM
[22]
  GI50: 1.64 µM
  TGI: 2.99 µM
[23]
  GI50: 1.32 µM
  TGI: 2.7 µM
[24]
  GI50: 0.557 µM
  TGI: 3.09 µM

## O=C(CCCn1cnc([N+](=O)[O-])n1)NCCCn1ccnc1[N+](=O)[O-]
[25]
  TGI: > 100 µM
[1]
  TGI: > 100 µM
[2]
  TGI: > 100 µM
[26]
  TGI: > 100 µM
[27]
  TGI: > 100 µM
[28]
  TGI: > 100 µM
[29]
  TGI: > 100 µM
[5]
  TGI: > 100 µM
[6]
  TGI: > 100 µM
[30]
  TGI: > 100 µM
[31]
  TGI: > 100 µM
[32]
  TGI: > 100 µM
[33]
  TGI: > 100 µM
[34]
  TGI: > 100 µM
[35]
  TGI: > 100 µM
[36]
  TGI: > 100 µM
[37]
  TGI: > 100 µM
[8]
  TGI: > 100 µM
[38]
  TGI: > 100 µM
[9]
  TGI: > 100 µM
[39]
  TGI: > 100 µM
[40]
  TGI: > 100 µM
[41]
  TGI: > 100 µM
[11]
  TGI: > 100 µM
[12]
  TGI: > 100 µM
[13]
  TGI: > 100 µM
[14]
  TGI: > 100 µM
[16]
  TGI: > 100 µM
[42]
  TGI: > 100 µM
[43]
  TGI: > 100 µM
[44]
  TGI: > 100 µM
[19]
  TGI: > 100 µM
[21]
  TGI: > 100 µM
[45]
  TGI: > 100 µM
[46]
  TGI: > 100 µM
[47]
  TGI: > 100 µM
[48]
  TGI: > 100 µM
[24]
  TGI: > 100 µM
[49]
  TGI: > 100 µM
[50]
  TGI: > 100 µM

## O=c1c2ccccc2nc2n1CCc1c-2[nH]c2ccc(Br)cc12
[25]
  TGI: > 100 µM
[1]
  TGI: > 100 µM
[27]
  TGI: > 100 µM
[29]
  TGI: > 100 µM
[4]
  TGI: > 100 µM
[51]
  TGI: > 100 µM
[31]
  TGI: > 100 µM
[32]
  TGI: > 100 µM
[33]
  TGI: > 100 µM
[34]
  TGI: > 100 µM
[35]
  TGI: > 100 µM
[36]
  TGI: > 100 µM
[8]
  TGI: > 100 µM
[38]
  TGI: > 100 µM
[52]
  TGI: > 100 µM
[9]
  TGI: > 100 µM
[10]
  TGI: > 100 µM
[40]
  TGI: > 100 µM
[41]
  TGI: > 100 µM
[11]
  TGI: > 100 µM
[13]
  TGI: > 100 µM
[14]
  TGI: > 100 µM
[15]
  TGI: > 100 µM
[42]
  TGI: > 100 µM
[18]
  TGI: > 100 µM
[44]
  TGI: > 100 µM
[19]
  TGI: > 100 µM
[53]
  TGI: > 100 µM
[20]
  TGI: > 100 µM
[45]
  TGI: > 100 µM
[24]
  TGI: > 100 µM
[49]
  TGI: > 100 µM
[50]
  TGI: > 100 µM

## COc1cc(-c2n[nH]nc2-c2ccc3c(c2)OCCO3)cc(OC)c1OC
[25]
  GI50: 17.6 µM
  TGI: 72.3 µM
[1]
  GI50: 3.73 µM
  TGI: 23.1 µM
[2]
  GI50: < 0.01 µM
  TGI: > 100 µM
[26]
  GI50: 0.133 µM
  TGI: > 100 µM
[27]
  GI50: 0.0229 µM
  TGI: 22.6 µM
[29]
  GI50: 0.0418 µM
  TGI: 35 µM
[4]
  GI50: 0.0336 µM
  TGI: 57.1 µM
[54]
  GI50: 0.0267 µM
  TGI: 0.0774 µM
[5]
  GI50: < 0.01 µM
  TGI: 11.2 µM
[6]
  GI50: < 0.01 µM
  TGI: > 100 µM
[30]
  GI50: < 0.01 µM
  TGI: 18.1 µM
[51]
  GI50: 0.0332 µM
  TGI: 30.3 µM
[31]
  GI50: 0.0182 µM
  TGI: 19.3 µM
[32]
  GI50: 2.88 µM
  TGI: 34.8 µM
[33]
  GI50: 0.048 µM
  TGI: 41.7 µM
[34]
  GI50: < 0.01 µM
  TGI: 0.166 µM
[35]
  GI50: 0.668 µM
  TGI: 64.2 µM
[7]
  GI50: < 0.01 µM
  TGI: 24.6 µM
[36]
  GI50: < 0.01 µM
  TGI: 0.811 µM
[37]
  GI50: < 0.01 µM
  TGI: 21.9 µM
[8]
  GI50: 0.0399 µM
  TGI: 11.6 µM
[38]
  GI50: < 0.01 µM
  TGI: > 100 µM
[52]
  GI50: < 0.01 µM
  TGI: 0.543 µM
[9]
  GI50: < 0.01 µM
  TGI: > 100 µM
[10]
  GI50: 0.0294 µM
  TGI: > 100 µM
[39]
  GI50: < 0.01 µM
  TGI: 37.9 µM
[40]
  GI50: 0.0609 µM
  TGI: 64.1 µM
[41]
  GI50: < 0.01 µM
  TGI: 13.5 µM
[11]
  GI50: 0.0325 µM
  TGI: 11 µM
[55]
  GI50: 0.0444 µM
  TGI: > 100 µM
[12]
  GI50: 4.57 µM
  TGI: 34.6 µM
[13]
  GI50: < 0.01 µM
[14]
  GI50: 2.18 µM
  TGI: > 100 µM
[16]
  GI50: 0.0189 µM
  TGI: 0.0824 µM
[42]
  GI50: 0.0253 µM
  TGI: 12.3 µM
[43]
  GI50: 0.0685 µM
  TGI: > 100 µM
[18]
  GI50: 0.025 µM
  TGI: > 100 µM
[56]
  GI50: 2.28 µM
  TGI: 21.2 µM
[44]
  GI50: < 0.01 µM
  TGI: 23.9 µM
[19]
  GI50: 0.0104 µM
  TGI: 1.5 µM
[53]
  GI50: 0.0175 µM
  TGI: 37.8 µM
[20]
  GI50: < 0.01 µM
  TGI: 69.7 µM
[22]
  GI50: < 0.01 µM
  TGI: > 100 µM
[23]
  GI50: < 0.01 µM
  TGI: 12.7 µM
[46]
  GI50: 0.0184 µM
  TGI: 39.4 µM
[47]
  GI50: 0.0394 µM
  TGI: 17.5 µM
[48]
  GI50: 0.0201 µM
  TGI: 22.7 µM
[24]
  GI50: 0.0337 µM
  TGI: > 100 µM
[49]
  GI50: < 0.01 µM
  TGI: 42.8 µM
[50]
  GI50: 0.0246 µM
  TGI: 20 µM
